Assay: Solubility comparison for bis-(theophylline-8-butyryl)-diamides
Assay type: physicochemical
Experimental: The bis-(theophylline-8-butyryl)-diamides of 1,6-hexanediamine and 4,9-dioxa-1,12-dodecanediamine (examples 2 and 3) were each dissolved in dimethylsulfoxide. The 4,9-dioxa-1,12-dodecanediamide dissolved readily to give a solution of 10 mg/0.5 ml at room temperature.

Structure (SMILES)	behaviour on dilution of DMSO solution into aqueous phosphate buffer (10 mg/2 ml DMSO solution diluted into a two-fold volume of pH 7.5 phosphate buffer)	solution obtained in dimethylsulfoxide (required heating to obtain a solution in dimethylsulfoxide) [mg/2 ml]	behaviour on dilution of DMSO solution into aqueous phosphate buffer (10 mg/0.5 ml DMSO solution diluted into 2 ml of 50 mM aqueous sodium phosphate buffer (pH 7.5))	solution obtained in dimethylsulfoxide (dissolved readily in dimethylsulfoxide, room temperature) [mg/0.5 ml]
Cn1c(=O)c2[nH]c(CCCC(=O)NCCCCCCNC(=O)CCCc3nc4c([nH]3)c(=O)n(C)c(=O)n4C)nc2n(C)c1=O [Example 2, bis-(Theophylline-8-butyryl)-1,6-hexanediamine]	immediate heavy precipitation of divalent hapten was noted	10	–	–
Cn1c(=O)c2[nH]c(CCCC(=O)NCCCOCCCCOCCCNC(=O)CCCc3nc4c([nH]3)c(=O)n(C)c(=O)n4C)nc2n(C)c1=O [Example 3, bis-(Theophylline-8-butyryl)-4,9-dioxa-1,12-dodecane-diamide]	–	–	clear, stable solution	10
